Reference: US6534524B1, “Indazole compounds and pharmaceutical compositions for inhibiting protein kinases, and methods for their use” (Agouron Pharmaceuticals, Inc., priority 1999, dated 2003)

System: human umbilical vein endothelial cells (HUVEC)
Test: HUVEC proliferation assay (VEGF-stimulated, MTT)
Assay type: cell-based
Details: Library III; HUVEC proliferation; nominal concentration of 0.5 nM; crude reaction mixtures

Row | SMILES | % inhibition [%]
1 | Cc1cc(NC(=O)c2ccccc2Sc2ccc3c(/C=C/c4ccccn4)n[nH]c3c2)ccc1F | 9
2 | Cc1ccc(NC(=O)c2ccccc2Sc2ccc3c(/C=C/c4ccccn4)n[nH]c3c2)c(F)c1 | 2
3 | O=C(Nc1cccc2cc(O)ccc12)c1ccccc1Sc1ccc2c(/C=C/c3ccccn3)n[nH]c2c1 | −22
4 | Cc1ccc2ccccc2c1NC(=O)c1ccccc1Sc1ccc2c(/C=C/c3ccccn3)n[nH]c2c1 | −19
5 | O=C(Nc1cccc(-c2cc[nH]n2)c1)c1ccccc1Sc1ccc2c(/C=C/c3ccccn3)n[nH]c2c1 | −3
6 | CC(C)(C)C1CCC(NC(=O)c2ccccc2Sc2ccc3c(/C=C/c4ccccn4)n[nH]c3c2)CC1 (stereo not shown) | 0
7 | CC(CCCC(C)(C)O)NC(=O)c1ccccc1Sc1ccc2c(/C=C/c3ccccn3)n[nH]c2c1 (stereo not shown) | 3
8 | Cc1ccc(NC(=O)c2ccccc2Sc2ccc3c(/C=C/c4ccccn4)n[nH]c3c2)c(C)c1 | 13
9 | COc1ccc(NC(=O)c2ccccc2Sc2ccc3c(/C=C/c4ccccn4)n[nH]c3c2)c(C)c1 | 0
10 | O=C(Nc1cccnc1Cl)c1ccccc1Sc1ccc2c(/C=C/c3ccccn3)n[nH]c2c1 | 2
11 | O=C(Nc1ncc(Cl)cc1Cl)c1ccccc1Sc1ccc2c(/C=C/c3ccccn3)n[nH]c2c1 | 4
12 | COc1ccc(NC(=O)c2ccccc2Sc2ccc3c(/C=C/c4ccccn4)n[nH]c3c2)c(OC)n1 | 20
13 | O=C(Nc1ccc(Cl)nc1)c1ccccc1Sc1ccc2c(/C=C/c3ccccn3)n[nH]c2c1 | 2
14 | N#Cc1c(NC(=O)c2ccccc2Sc2ccc3c(/C=C/c4ccccn4)n[nH]c3c2)sc2c1CCC2 | −9
15 | Cc1ccc(O)c(NC(=O)c2ccccc2Sc2ccc3c(/C=C/c4ccccn4)n[nH]c3c2)c1 | −1
16 | O=C(Nc1cccc2c(O)cccc12)c1ccccc1Sc1ccc2c(/C=C/c3ccccn3)n[nH]c2c1 | 4
17 | Cc1cc(O)ccc1NC(=O)c1ccccc1Sc1ccc2c(/C=C/c3ccccn3)n[nH]c2c1 | 12
18 | COC(CCCNC(=O)c1ccccc1Sc1ccc2c(/C=C/c3ccccn3)n[nH]c2c1)OC | 9
19 | Cc1ccnc(NC(=O)c2ccccc2Sc2ccc3c(/C=C/c4ccccn4)n[nH]c3c2)c1 | −6
20 | NC(=O)c1ccc(NC(=O)c2ccccc2Sc2ccc3c(/C=C/c4ccccn4)n[nH]c3c2)nc1 | −2
21 | CC(=O)c1cccc(NC(=O)c2ccccc2Sc2ccc3c(/C=C/c4ccccn4)n[nH]c3c2)c1 | 5
22 | CC(=O)c1ccc(NC(=O)c2ccccc2Sc2ccc3c(/C=C/c4ccccn4)n[nH]c3c2)cc1 | 6

Row | SMILES | % inhibition [%]
23 | O=C(Nc1ccc2ccccc2n1)c1ccccc1Sc1ccc2c(/C=C/c3ccccn3)n[nH]c2c1 | 18
24 | CCc1ccnc(NC(=O)c2ccccc2Sc2ccc3c(/C=C/c4ccccn4)n[nH]c3c2)c1 | 20
25 | CCc1ccc(C)nc1NC(=O)c1ccccc1Sc1ccc2c(/C=C/c3ccccn3)n[nH]c2c1 | −23
26 | COc1ccc(NC(=O)c2ccccc2Sc2ccc3c(/C=C/c4ccccn4)n[nH]c3c2)cc1F | 9
27 | COC(=O)c1nccnc1NC(=O)c1ccccc1Sc1ccc2c(/C=C/c3ccccn3)n[nH]c2c1 | 7
28 | CCOC(=O)c1ccccc1NC(=O)c1ccccc1Sc1ccc2c(/C=C/c3ccccn3)n[nH]c2c1 | −4
29 | Cc1c(O)ccc(NC(=O)c2ccccc2Sc2ccc3c(/C=C/c4ccccn4)n[nH]c3c2)c1C | 4
30 | O=C(Nc1ccc(O)cc1Cl)c1ccccc1Sc1ccc2c(/C=C/c3ccccn3)n[nH]c2c1 | 7
31 | O=C(Nc1nc[nH]c1[N+](=O)[O-])c1ccccc1Sc1ccc2c(/C=C/c3ccccn3)n[nH]c2c1 | 7
32 | O=C(Nc1ncnc2[nH]cnc12)c1ccccc1Sc1ccc2c(/C=C/c3ccccn3)n[nH]c2c1 | 18
33 | O=C(Nc1nc(Cl)ncc1F)c1ccccc1Sc1ccc2c(/C=C/c3ccccn3)n[nH]c2c1 | 11
34 | O=C(Nc1ccc2c(c1)C(=O)NC2=O)c1ccccc1Sc1ccc2c(/C=C/c3ccccn3)n[nH]c2c1 | −31
35 | NC(=O)c1[nH]cnc1NC(=O)c1ccccc1Sc1ccc2c(/C=C/c3ccccn3)n[nH]c2c1 | −1
36 | CC(C)(C)c1ccc(O)c(NC(=O)c2ccccc2Sc2ccc3c(/C=C/c4ccccn4)n[nH]c3c2)c1 | −3
37 | Cc1cccc(O)c1NC(=O)c1ccccc1Sc1ccc2c(/C=C/c3ccccn3)n[nH]c2c1 | 11
38 | O=C(Nc1cc(Cl)ccc1Cl)c1ccccc1Sc1ccc2c(/C=C/c3ccccn3)n[nH]c2c1 | 15
39 | Cc1cccc(C(C)C)c1NC(=O)c1ccccc1Sc1ccc2c(/C=C/c3ccccn3)n[nH]c2c1 | −37
40 | Cc1cccc(C)c1NC(=O)c1ccccc1Sc1ccc2c(/C=C/c3ccccn3)n[nH]c2c1 | −20
41 | COc1cccc(C)c1NC(=O)c1ccccc1Sc1ccc2c(/C=C/c3ccccn3)n[nH]c2c1 | 8
42 | C=C(C)c1ccccc1NC(=O)c1ccccc1Sc1ccc2c(/C=C/c3ccccn3)n[nH]c2c1 | −41
43 | CC(C)(C)c1nnc(NC(=O)c2ccccc2Sc2ccc3c(/C=C/c4ccccn4)n[nH]c3c2)s1 | −28
44 | Cc1nnc(NC(=O)c2ccccc2Sc2ccc3c(/C=C/c4ccccn4)n[nH]c3c2)s1 | −20

Row | SMILES | % inhibition [%]
45 | O=C(Nc1nnc(C2CC2)s1)c1ccccc1Sc1ccc2c(/C=C/c3ccccn3)n[nH]c2c1 | −20
46 | O=C(NCC1CCCCC1)c1ccccc1Sc1ccc2c(/C=C/c3ccccn3)n[nH]c2c1 | 3
47 | O=C(NC1CCCCC1C1CCCCC1)c1ccccc1Sc1ccc2c(/C=C/c3ccccn3)n[nH]c2c1 (stereo not shown) | 11
48 | CCOc1ccccc1CCNC(=O)c1ccccc1Sc1ccc2c(/C=C/c3ccccn3)n[nH]c2c1 | 1
49 | COc1ccc(OC)c(NC(=O)c2ccccc2Sc2ccc3c(/C=C/c4ccccn4)n[nH]c3c2)c1 | −5
50 | COc1cc(NC(=O)c2ccccc2Sc2ccc3c(/C=C/c4ccccn4)n[nH]c3c2)cc(OC)c1 | −60
51 | COC(=O)c1ccc(NC(=O)c2ccccc2Sc2ccc3c(/C=C/c4ccccn4)n[nH]c3c2)c(C)c1 | −46
52 | O=C(NCC(F)(F)C(F)(F)F)c1ccccc1Sc1ccc2c(/C=C/c3ccccn3)n[nH]c2c1 | −22
53 | N#CC(NC(=O)c1ccccc1Sc1ccc2c(/C=C/c3ccccn3)n[nH]c2c1)c1ccc(F)cc1 (stereo not shown) | −20
54 | O=C(NCc1ccc(F)cc1Cl)c1ccccc1Sc1ccc2c(/C=C/c3ccccn3)n[nH]c2c1 | −7
55 | CCCCC(CO)NC(=O)c1ccccc1Sc1ccc2c(/C=C/c3ccccn3)n[nH]c2c1 (stereo not shown) | −28
56 | O=C(Nc1ccc(O)c(F)c1)c1ccccc1Sc1ccc2c(/C=C/c3ccccn3)n[nH]c2c1 | −10
57 | O=C(NC(CO)CC1CCCCC1)c1ccccc1Sc1ccc2c(C=Cc3ccccn3)n[nH]c2c1 (stereo not shown) | 13
58 | CC(C)(C)C(CO)NC(=O)c1ccccc1Sc1ccc2c(C=Cc3ccccn3)n[nH]c2c1 (stereo not shown) | −7
59 | O=C(Nc1cccc(-c2ccccc2)c1)c1ccccc1Sc1ccc2c(/C=C/c3ccccn3)n[nH]c2c1 | −13
60 | CSCCC(CO)NC(=O)c1ccccc1Sc1ccc2c(/C=C/c3ccccn3)n[nH]c2c1 (stereo not shown) | −45
61 | CCC(C)C(CO)NC(=O)c1ccccc1Sc1ccc2c(C=Cc3ccccn3)n[nH]c2c1 (stereo not shown) | −40
62 | CCOC(CCCNC(=O)c1ccccc1Sc1ccc2c(/C=C/c3ccccn3)n[nH]c2c1)OCC | −11
63 | O=C(NCCSCCO)c1ccccc1Sc1ccc2c(/C=C/c3ccccn3)n[nH]c2c1 | −31
64 | CC(C)c1ccccc1NC(=O)c1ccccc1Sc1ccc2c(/C=C/c3ccccn3)n[nH]c2c1 | −30
65 | CSCCC(CO)NC(=O)c1ccccc1Sc1ccc2c(C=Cc3ccccn3)n[nH]c2c1 (stereo not shown) | −11
66 | CC(C)(CO)NC(=O)c1ccccc1Sc1ccc2c(/C=C/c3ccccn3)n[nH]c2c1 | −2

Row | SMILES | % inhibition [%]
67 | CSCCNC(=O)c1ccccc1Sc1ccc2c(/C=C/c3ccccn3)n[nH]c2c1 | 18
68 | CCSCCNC(=O)c1ccccc1Sc1ccc2c(/C=C/c3ccccn3)n[nH]c2c1 | 7
69 | CCCCN(CCCC)CCNC(=O)c1ccccc1Sc1ccc2c(/C=C/c3ccccn3)n[nH]c2c1 | 1
70 | COC(OC)C(C)NC(=O)c1ccccc1Sc1ccc2c(/C=C/c3ccccn3)n[nH]c2c1 (stereo not shown) | 0
71 | O=C(NC(CO)(CO)CO)c1ccccc1Sc1ccc2c(/C=C/c3ccccn3)n[nH]c2c1 | 14
72 | CCC(CO)(CO)NC(=O)c1ccccc1Sc1ccc2c(/C=C/c3ccccn3)n[nH]c2c1 | 61
73 | CCC(C)C(NC(=O)c1ccccc1Sc1ccc2c(C=Cc3ccccn3)n[nH]c2c1)C(=O)NO (stereo not shown) | 9
74 | O=C(Nc1ccc2ncccc2c1)c1ccccc1Sc1ccc2c(/C=C/c3ccccn3)n[nH]c2c1 | 1
75 | O=C(Nc1ccccc1-c1ccccc1)c1ccccc1Sc1ccc2c(/C=C/c3ccccn3)n[nH]c2c1 | 1
76 | O=C(Nc1cccc(C(F)(F)F)c1)c1ccccc1Sc1ccc2c(/C=C/c3ccccn3)n[nH]c2c1 | 4
77 | O=C(Nc1cccc2cnccc12)c1ccccc1Sc1ccc2c(/C=C/c3ccccn3)n[nH]c2c1 | 1
78 | O=C(Nc1ccc(Cl)c(Cl)c1)c1ccccc1Sc1ccc2c(/C=C/c3ccccn3)n[nH]c2c1 | 8
79 | O=C(Nc1ccc(Cl)cc1)c1ccccc1Sc1ccc2c(/C=C/c3ccccn3)n[nH]c2c1 | −12
80 | O=C(Nc1ccc(O)cc1)c1ccccc1Sc1ccc2c(/C=C/c3ccccn3)n[nH]c2c1 | 52
81 | CS(=O)(=O)c1ccc(NC(=O)c2ccccc2Sc2ccc3c(/C=C/c4ccccn4)n[nH]c3c2)cc1 | 19
82 | O=C(Nc1ccccc1O)c1ccccc1Sc1ccc2c(/C=C/c3ccccn3)n[nH]c2c1 | 13
83 | O=C(Nc1ccccc1-n1cccc1)c1ccccc1Sc1ccc2c(/C=C/c3ccccn3)n[nH]c2c1 | −7
84 | O=C(Nc1ccc2c(O)cccc2c1)c1ccccc1Sc1ccc2c(/C=C/c3ccccn3)n[nH]c2c1 | −26
85 | O=C(Nc1ccc2cn[nH]c2c1)c1ccccc1Sc1ccc2c(/C=C/c3ccccn3)n[nH]c2c1 | 7
